In test [1] the target is T1, Muscarinic acetylcholine receptor M2 (Homo sapiens, UniProt P08172).
T1 sequence (P08172 whole entry): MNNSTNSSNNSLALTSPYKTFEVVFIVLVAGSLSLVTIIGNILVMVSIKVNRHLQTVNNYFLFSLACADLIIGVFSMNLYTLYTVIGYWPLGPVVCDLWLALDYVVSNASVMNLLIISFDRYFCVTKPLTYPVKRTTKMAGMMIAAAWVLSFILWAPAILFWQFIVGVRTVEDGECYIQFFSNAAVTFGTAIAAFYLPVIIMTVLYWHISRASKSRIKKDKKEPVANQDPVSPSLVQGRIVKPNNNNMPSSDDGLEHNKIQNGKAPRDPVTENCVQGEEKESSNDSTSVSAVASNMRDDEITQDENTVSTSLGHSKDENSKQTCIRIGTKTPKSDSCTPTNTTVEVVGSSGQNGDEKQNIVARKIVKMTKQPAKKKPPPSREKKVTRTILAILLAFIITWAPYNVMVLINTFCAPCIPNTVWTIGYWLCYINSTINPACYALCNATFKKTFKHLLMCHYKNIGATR

For the next test, the target named is Histamine H3 receptor (Homo sapiens, UniProt Q9Y5N1).
Test [2] concerns the target T2, 5-hydroxytryptamine receptor 1A (Homo sapiens, UniProt P08908).
T2 sequence (P08908 whole entry): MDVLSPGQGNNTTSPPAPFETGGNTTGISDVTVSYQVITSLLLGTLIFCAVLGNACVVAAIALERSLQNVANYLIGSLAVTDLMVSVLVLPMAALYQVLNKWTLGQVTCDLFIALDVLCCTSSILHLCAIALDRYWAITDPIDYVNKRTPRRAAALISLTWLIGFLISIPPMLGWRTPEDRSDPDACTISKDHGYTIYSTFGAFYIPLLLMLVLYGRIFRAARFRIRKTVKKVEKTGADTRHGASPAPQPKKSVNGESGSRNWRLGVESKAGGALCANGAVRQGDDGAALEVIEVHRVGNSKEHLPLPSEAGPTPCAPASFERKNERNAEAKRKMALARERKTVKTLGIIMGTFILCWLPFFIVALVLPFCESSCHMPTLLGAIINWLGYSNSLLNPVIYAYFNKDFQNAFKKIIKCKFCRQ

The target of test [3] is T3, Amine oxidase [flavin-containing] A (Homo sapiens, UniProt P21397).
T3 sequence (P21397 whole entry): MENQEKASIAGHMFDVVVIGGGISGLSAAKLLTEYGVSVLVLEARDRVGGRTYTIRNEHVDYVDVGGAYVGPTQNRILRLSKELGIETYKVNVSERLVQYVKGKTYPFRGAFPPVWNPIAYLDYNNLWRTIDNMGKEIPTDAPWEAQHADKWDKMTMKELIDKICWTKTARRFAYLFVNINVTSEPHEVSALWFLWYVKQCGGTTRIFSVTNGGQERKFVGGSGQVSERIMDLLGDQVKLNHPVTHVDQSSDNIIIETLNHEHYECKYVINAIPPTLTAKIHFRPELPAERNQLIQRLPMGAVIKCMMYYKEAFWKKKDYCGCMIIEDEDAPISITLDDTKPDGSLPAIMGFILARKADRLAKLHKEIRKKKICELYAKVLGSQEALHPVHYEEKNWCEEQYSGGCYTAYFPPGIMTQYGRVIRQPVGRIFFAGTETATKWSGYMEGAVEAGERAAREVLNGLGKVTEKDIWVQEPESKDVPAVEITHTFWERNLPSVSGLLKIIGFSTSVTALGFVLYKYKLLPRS
Format: functional.

Test [4] deals with cGMP-inhibited 3',5'-cyclic phosphodiesterase 3A (Homo sapiens, UniProt Q14432). The class given is functional.
In test [5] the target is 3',5'-cyclic-AMP phosphodiesterase 4A (Homo sapiens, UniProt P27815). The class given is functional.
The target of test [6] is T4, Muscarinic acetylcholine receptor M1 (Homo sapiens, UniProt P11229).
T4 sequence (P11229 whole entry): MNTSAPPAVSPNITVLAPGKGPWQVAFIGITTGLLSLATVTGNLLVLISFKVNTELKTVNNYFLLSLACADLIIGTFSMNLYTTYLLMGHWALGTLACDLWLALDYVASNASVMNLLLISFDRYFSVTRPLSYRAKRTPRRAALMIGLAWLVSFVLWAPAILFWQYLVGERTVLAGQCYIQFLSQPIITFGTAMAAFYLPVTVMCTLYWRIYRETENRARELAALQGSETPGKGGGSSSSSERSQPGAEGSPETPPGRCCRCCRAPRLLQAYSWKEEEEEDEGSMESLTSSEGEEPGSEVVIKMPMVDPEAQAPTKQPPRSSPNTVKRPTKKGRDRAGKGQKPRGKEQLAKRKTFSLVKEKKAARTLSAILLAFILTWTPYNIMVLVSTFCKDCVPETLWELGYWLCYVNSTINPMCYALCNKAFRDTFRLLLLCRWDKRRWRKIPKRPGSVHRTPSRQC
Format: functional.

The target of the next test is Histamine H2 receptor (Homo sapiens, UniProt P25021). Format: functional, cell-based.
A further test deals with Melanocortin receptor 3 (Homo sapiens, UniProt P41968).
Test [7] concerns the target Sodium-dependent dopamine transporter (Homo sapiens, UniProt Q01959).
Note: assay procedure not described here.

Sequence of 3',5'-cyclic-AMP phosphodiesterase 4A (P27815 whole entry): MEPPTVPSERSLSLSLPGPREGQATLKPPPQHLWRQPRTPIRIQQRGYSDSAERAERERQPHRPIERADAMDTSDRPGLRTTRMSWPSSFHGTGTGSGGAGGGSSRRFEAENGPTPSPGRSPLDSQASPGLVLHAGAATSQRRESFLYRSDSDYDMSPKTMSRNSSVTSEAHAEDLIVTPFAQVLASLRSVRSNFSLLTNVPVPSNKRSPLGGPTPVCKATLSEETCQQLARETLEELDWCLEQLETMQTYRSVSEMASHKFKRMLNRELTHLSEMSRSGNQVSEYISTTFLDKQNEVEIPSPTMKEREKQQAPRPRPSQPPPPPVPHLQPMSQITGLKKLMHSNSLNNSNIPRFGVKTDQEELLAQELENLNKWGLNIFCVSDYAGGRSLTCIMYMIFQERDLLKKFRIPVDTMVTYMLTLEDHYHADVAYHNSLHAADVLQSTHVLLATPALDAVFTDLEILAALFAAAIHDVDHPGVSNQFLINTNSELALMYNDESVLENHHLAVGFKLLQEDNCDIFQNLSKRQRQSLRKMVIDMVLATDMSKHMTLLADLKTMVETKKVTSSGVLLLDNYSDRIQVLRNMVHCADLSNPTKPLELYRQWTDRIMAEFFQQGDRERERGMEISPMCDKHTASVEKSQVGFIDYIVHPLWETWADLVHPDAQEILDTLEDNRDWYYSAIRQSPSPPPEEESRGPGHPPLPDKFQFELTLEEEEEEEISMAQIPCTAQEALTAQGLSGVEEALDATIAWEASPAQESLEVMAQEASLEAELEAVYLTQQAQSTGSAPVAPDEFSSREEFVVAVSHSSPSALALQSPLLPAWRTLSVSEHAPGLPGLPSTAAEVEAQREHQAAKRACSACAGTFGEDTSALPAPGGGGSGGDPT
Sequence of cGMP-inhibited 3',5'-cyclic phosphodiesterase 3A (Q14432 whole entry): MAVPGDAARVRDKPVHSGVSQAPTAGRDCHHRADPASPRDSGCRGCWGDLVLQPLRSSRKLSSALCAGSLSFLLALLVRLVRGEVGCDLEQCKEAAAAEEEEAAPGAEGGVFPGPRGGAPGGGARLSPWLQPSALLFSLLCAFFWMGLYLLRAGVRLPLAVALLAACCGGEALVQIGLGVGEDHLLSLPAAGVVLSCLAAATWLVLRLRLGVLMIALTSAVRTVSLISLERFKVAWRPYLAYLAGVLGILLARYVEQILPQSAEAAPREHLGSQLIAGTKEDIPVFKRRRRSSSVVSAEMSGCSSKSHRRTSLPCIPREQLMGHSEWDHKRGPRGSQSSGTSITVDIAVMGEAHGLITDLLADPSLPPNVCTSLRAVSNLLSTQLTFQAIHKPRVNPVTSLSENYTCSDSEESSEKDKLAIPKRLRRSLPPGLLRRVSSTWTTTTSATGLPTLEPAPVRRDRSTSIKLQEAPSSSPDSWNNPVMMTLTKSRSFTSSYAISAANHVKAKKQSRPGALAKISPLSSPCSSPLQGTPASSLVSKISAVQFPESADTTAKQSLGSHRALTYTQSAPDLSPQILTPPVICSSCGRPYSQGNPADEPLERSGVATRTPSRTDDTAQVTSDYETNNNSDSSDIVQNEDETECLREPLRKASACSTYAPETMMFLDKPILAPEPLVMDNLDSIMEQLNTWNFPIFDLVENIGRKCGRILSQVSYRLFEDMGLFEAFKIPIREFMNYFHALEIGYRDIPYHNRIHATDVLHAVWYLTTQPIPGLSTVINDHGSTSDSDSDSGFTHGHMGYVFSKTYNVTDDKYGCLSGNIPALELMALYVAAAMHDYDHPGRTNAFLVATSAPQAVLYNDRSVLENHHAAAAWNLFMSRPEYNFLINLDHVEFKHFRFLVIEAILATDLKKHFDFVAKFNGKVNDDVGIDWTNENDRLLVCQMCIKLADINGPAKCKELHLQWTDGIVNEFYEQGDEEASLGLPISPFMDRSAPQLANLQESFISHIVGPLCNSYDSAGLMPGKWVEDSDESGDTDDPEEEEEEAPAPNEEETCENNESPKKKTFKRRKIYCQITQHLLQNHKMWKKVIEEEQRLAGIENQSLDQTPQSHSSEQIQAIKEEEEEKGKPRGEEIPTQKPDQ
Sequence of Histamine H3 receptor (Q9Y5N1 whole entry): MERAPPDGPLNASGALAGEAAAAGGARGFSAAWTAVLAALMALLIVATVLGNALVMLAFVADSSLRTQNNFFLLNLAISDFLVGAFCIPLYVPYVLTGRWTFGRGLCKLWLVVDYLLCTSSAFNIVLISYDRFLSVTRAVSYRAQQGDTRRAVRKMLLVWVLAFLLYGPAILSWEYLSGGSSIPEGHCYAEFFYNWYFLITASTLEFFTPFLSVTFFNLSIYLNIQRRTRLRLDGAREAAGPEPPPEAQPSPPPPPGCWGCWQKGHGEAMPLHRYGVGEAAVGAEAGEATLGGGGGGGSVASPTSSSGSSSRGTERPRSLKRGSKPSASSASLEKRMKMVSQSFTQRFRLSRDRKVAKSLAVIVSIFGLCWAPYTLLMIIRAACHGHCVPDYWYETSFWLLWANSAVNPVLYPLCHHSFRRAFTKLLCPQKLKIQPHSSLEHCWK
Sequence of Melanocortin receptor 3 (P41968 whole entry): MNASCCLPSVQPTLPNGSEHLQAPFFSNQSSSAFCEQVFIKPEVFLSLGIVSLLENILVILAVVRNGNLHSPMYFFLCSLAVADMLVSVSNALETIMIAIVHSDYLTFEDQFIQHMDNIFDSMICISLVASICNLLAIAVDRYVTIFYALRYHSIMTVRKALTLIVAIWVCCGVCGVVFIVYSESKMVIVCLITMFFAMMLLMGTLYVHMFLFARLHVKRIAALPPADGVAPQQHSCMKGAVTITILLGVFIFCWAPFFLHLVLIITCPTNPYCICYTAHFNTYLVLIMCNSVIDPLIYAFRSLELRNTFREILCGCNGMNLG
Sequence of Sodium-dependent dopamine transporter (Q01959 whole entry): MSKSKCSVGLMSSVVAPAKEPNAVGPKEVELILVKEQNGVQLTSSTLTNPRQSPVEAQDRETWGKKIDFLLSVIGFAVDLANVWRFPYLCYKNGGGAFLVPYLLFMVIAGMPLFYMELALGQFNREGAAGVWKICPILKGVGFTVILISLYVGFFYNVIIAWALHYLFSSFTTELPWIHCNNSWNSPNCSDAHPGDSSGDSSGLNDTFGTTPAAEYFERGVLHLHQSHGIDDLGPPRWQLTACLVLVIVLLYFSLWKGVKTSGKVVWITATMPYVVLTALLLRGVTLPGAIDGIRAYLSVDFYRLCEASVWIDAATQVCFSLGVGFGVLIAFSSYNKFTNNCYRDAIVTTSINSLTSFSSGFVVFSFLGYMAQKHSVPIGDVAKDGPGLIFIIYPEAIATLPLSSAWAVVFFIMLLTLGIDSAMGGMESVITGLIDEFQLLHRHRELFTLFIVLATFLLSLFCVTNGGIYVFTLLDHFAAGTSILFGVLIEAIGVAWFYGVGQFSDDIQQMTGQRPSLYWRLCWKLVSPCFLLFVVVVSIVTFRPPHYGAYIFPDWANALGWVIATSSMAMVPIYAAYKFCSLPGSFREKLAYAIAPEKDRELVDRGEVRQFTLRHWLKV
Sequence of Histamine H2 receptor (P25021 whole entry): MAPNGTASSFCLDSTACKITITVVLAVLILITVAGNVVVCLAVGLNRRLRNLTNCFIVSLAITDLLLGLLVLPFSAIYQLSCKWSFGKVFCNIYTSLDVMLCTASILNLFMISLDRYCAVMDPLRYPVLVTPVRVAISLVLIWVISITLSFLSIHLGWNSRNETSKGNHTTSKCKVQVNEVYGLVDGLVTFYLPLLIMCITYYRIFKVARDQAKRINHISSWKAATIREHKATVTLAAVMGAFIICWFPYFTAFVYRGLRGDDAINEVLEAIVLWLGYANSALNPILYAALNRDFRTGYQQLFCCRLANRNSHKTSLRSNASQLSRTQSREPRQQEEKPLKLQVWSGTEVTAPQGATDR

The AC50 is the concentration at which the activity in the assay is half-maximal. A low value points to greater potency. In the case of `CN(C)c1ccc(C(=C2C=CC(=[N+](C)C)C=C2)c2ccc(N(C)C)cc2)cc1` [GENTIAN VIOLET], the AC50 in test [1] was 478 nM; at Histamine H3 receptor it was 4.71 µM; in test [2], 4.24 µM; in [3] it was greater than 30 µM; in test [4], greater than 30 µM; in [5], 13.2 µM.
Consider `Nc1ccc(S(N)(=O)=O)cc1` [SULFANILAMIDE], for which the half-maximal activity concentration (AC50) in test [1] was greater than 30000 nM; on Histamine H3 receptor, greater than 30 µM; in test [2], greater than 30 µM; in [3] it was greater than 30 µM; in [4], greater than 30 µM; in [5], greater than 30 µM.
Take HYDROXOCOBALAMIN: the half-maximal activity concentration (AC50) (in test [6]; on Histamine H2 receptor; at Melanocortin receptor 3; in test [7]) was greater than 30 µM in each case.
